Laboratory results: ChEMBL document CHEMBL5352424, “Boosting caffeic acid performance as antioxidant and monoamine oxidase B/catechol-O-methyltransferase inhibitor” (Eur J Med Chem, 2022)
Active and inactive are the calls of the source. The calls are words filed in the database; no cut-off is given here.

Experiments:
Rattus norvegicus = organism: Rattus norvegicus; experiment: Selectivity index, ratio of IC50 for S-COMT in rat liver homogenates to IC50 for MB-COMT in rat brain homogenates; format: tissue-based
SH-SY5Y [1] = experiment: Cytotoxicity against retinoic acid and TPA-differentiated human SH-SY5Y cells assessed as reduction in lysosomal activity by measuring neutral red dye uptake at 10 uM incubated for 24 hrs by neutral red dye based assay relative to control; format: toxicity, cell-based; set-up: scale not given: the % may be the effect or the level left
[2] = Retention time of compound at pH 2.6 by LC/UV analysis; format: physicochemical; settings: buffer
[3] = molecular target: T1, Catechol O-methyltransferase (Rattus norvegicus, UniProt P22734); experiment: Inhibition of MB-COMT in rat brain homogenates using adrenaline as substrate and SAM as cofactor preincubated for 20 mins followed by substrate addition and measured after 5 mins; format: tissue-based
T1 sequence (P22734 whole entry): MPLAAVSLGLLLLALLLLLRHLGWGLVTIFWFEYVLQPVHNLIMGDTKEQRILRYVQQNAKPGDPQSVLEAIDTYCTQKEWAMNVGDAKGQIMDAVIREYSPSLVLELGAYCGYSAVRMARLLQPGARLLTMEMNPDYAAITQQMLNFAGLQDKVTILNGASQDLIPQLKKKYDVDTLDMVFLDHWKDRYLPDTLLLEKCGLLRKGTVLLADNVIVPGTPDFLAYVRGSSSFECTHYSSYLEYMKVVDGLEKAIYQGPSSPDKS

[4] = molecular target: T1, Catechol O-methyltransferase; experiment: Inhibition of MB-COMT in rat liver homogenates using adrenaline as substrate and SAM as cofactor preincubated for 20 mins followed by substrate addition and measured after 5 mins; format: tissue-based
SH-SY5Y [5] = experiment: Cytotoxicity against retinoic acid and TPA-differentiated human SH-SY5Y cells assessed as increase in intracellular ROS formation by measuring increase in DCF fluorescence at 10 to 50 uM incubated for 24 hrs by DCF fluorescence analysis; format: toxicity, cell-based; settings: dose 10-50 µM
SH-SY5Y [6] = experiment: Cytotoxicity against retinoic acid and TPA-differentiated human SH-SY5Y cells assessed as reduction in lysosomal activity at 50 uM incubated for 24 hrs by neutral red dye based assay; format: toxicity, cell-based
[7] = molecular target: T2, Amine oxidase [flavin-containing] B (Homo sapiens, UniProt P27338); experiment: Inhibition of human MAO-B using kynuramine as substrate incubated for 30 mins by spectrophotometry analysis
T2 sequence (P27338 whole entry): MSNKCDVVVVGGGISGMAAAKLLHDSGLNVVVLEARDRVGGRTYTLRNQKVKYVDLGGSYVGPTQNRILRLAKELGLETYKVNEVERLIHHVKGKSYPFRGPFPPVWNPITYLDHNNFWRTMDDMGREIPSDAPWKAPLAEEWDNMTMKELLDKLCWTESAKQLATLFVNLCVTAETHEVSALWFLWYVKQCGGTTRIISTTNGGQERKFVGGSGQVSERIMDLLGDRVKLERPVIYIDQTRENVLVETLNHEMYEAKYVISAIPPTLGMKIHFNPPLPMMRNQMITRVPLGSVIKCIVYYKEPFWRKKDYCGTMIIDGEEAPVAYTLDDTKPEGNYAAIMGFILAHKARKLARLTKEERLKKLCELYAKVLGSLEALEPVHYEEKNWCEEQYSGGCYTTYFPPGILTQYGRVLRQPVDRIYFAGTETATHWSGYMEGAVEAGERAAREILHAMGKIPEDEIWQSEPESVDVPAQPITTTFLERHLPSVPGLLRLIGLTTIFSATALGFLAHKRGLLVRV

[8] = Chromatographic hydrophobicity index of compound at pH 2.6 by HPLC analysis; format: physicochemical
[9] = Oxidation potential of compound at pH 7.3 by differential pulse voltammetry analysis; format: physicochemical
SH-SY5Y [10] = experiment: Cytoprotective activity against t-BHP induced oxidative stress in retinoic acid and TPA-differentiated human SH-SY5Y cells assessed as increase in resorufin fluorescence at 10 uM pretreated for 30 mins followed by t-BHP stimulation and measured after 24 hrs by resazurin dye based analysis; format: functional, cell-based; settings: time 24.5 hrs
Homo sapiens = organism: Homo sapiens; experiment: Selectivity index, ratio of IC50 for human MAO-A to IC50 for human MAO-B
[11] = molecular target: T3, Catechol O-methyltransferase (Rattus norvegicus) (UniProt P22734); experiment: Inhibition of S-COMT in rat liver homogenates using adrenaline as substrate and SAM as cofactor at 30 uM preincubated for 20 mins followed by substrate addition and measured after 5 mins relative to control; format: tissue-based; settings: time 25.0 min
T3 sequence (whole entry): T1 sequence (P22734 whole entry)

[12] = molecular target: T4, Amine oxidase [flavin-containing] A (Homo sapiens, UniProt P21397); experiment: Inhibition of human MAO-A using kynuramine as substrate at 10 uM incubated for 30 mins by spectrophotometry analysis relative to control; settings: 0.5 h
T4 sequence (P21397 whole entry): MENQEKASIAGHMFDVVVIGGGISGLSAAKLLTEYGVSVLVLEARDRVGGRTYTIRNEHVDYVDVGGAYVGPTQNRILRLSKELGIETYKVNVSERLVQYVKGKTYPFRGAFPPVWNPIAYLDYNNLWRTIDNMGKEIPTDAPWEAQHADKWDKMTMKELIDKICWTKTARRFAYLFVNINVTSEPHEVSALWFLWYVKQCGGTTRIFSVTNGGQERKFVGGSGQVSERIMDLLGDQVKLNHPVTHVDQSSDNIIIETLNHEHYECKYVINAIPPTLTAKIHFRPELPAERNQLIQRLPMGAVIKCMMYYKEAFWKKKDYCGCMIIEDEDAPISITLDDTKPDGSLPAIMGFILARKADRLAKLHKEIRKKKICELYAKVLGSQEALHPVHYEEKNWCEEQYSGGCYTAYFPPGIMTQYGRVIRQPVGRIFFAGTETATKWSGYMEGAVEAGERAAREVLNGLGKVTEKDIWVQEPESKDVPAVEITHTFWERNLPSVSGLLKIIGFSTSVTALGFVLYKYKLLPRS

SH-SY5Y [13] = experiment: Cytotoxicity against retinoic acid and TPA-differentiated human SH-SY5Y cells assessed as reduction in metabolic activity by measuring resazurin reduction at 10 uM incubated for 24 hrs by resazurin dye based assay relative to control; format: toxicity, cell-based; set-up: scale not given: the % may be the effect or the level left
[14] = Antioxidant activity assessed as ORAC-FL index; format: functional
SH-SY5Y [15] = experiment: Cytotoxicity against retinoic acid and TPA-differentiated human SH-SY5Y cells assessed as reduction in lysosomal activity by measuring neutral red dye internalization at 10 to 50 uM incubated for 24 hrs by neutral red dye based assay; format: toxicity, cell-based; settings: dose 10-50 µM
[16] = molecular target: T3, Catechol O-methyltransferase (Rattus norvegicus); experiment: Inhibition of MB-COMT in rat brain homogenates using adrenaline as substrate and SAM as cofactor at 30 uM preincubated for 20 mins followed by substrate addition and measured after 5 mins relative to control; format: tissue-based; settings: time 25.0 min
[17] = molecular target: T2, Amine oxidase [flavin-containing] B; experiment: Inhibition of human MAO-B using kynuramine as substrate at 10 uM incubated for 30 mins by spectrophotometry analysis relative to control; settings: 0.5 h
[18] = molecular target: T3, Catechol O-methyltransferase (Rattus norvegicus); experiment: Inhibition of MB-COMT in rat liver homogenates using adrenaline as substrate and SAM as cofactor at 30 uM preincubated for 20 mins followed by substrate addition and measured after 5 mins relative to control; format: tissue-based; settings: time 25.0 min
SH-SY5Y [19] = experiment: Cytotoxicity against retinoic acid and TPA-differentiated human SH-SY5Y cells assessed as reduction in metabolic activity by measuring reduction in resorufin fluorescence at 10 to 50 uM incubated for 24 hrs by resazurin dye based assay; format: toxicity, cell-based; settings: dose 10-50 µM

SMILES | IC50 [3] | IC50 [4] | Ep [9] | inhibition [11] | inhibition at 10 µM [12] | inhibition [16] | inhibition at 10 µM [17] | inhibition [18] | Ratio IC50 (Rattus norvegicus) | Activity (SH-SY5Y [1]) | Activity (SH-SY5Y [5]) | Activity (SH-SY5Y [6]) | Activity (SH-SY5Y [10]) | Activity (SH-SY5Y [13]) | Activity index [14] | Activity (SH-SY5Y [15]) | Activity (SH-SY5Y [19]) | other results
O=C(/C=C/C=C/c1ccc(O)c(O)c1)N1CCCCC1 | 1650 nM | 3840 nM | 113 mV | < 50% | < 50% | – | – | – | > 18 | > 85% | Non-Toxic | Toxic | Active | > 85% | 4.3 | – | – | Retention_time [2]: 10.08 min; IC50 [7]: 2500 nM; CHI [8]: 49.61; Ratio IC50 (Homo sapiens): > 4
N#C/C(=C\C=C\c1ccc(O)c(O)c1)C(=O)O | – | – | 144 mV | < 50% | < 50% | < 50% | < 50% | < 50% | – | – | – | – | inactive | – | 4.9 | Non-Toxic | Non-Toxic | –

The next lines start with results.

IC50 [3] | IC50 [4] | Ep [9] | inhibition [11] | inhibition at 10 µM [12] | inhibition [16] | inhibition at 10 µM [17] | inhibition [18] | SMILES | Ratio IC50 (Rattus norvegicus) | Activity (SH-SY5Y [1]) | Activity (SH-SY5Y [5]) | Activity (SH-SY5Y [6]) | Activity (SH-SY5Y [10]) | Activity (SH-SY5Y [13]) | Activity index [14] | Activity (SH-SY5Y [15]) | Activity (SH-SY5Y [19]) | other results
1620 nM | 6130 nM | 114 mV | < 50% | < 50% | – | < 50% | – | O=C(/C=C/C=C/c1ccc(O)c(O)c1)Nc1ccccc1 | > 19 | > 85% | – | Toxic | Active | > 85% | 4.1 | – | – | –
1480 nM | 4270 nM | 129 mV | < 50% | < 50% | – | < 50% | – | O=C(/C=C/C=C/c1ccc(O)c(O)c1)NCc1ccccc1 | > 20 | > 85% | – | Toxic | Active | > 85% | 4 | – | – | –
1320 nM | 3640 nM | 124 mV | < 50% | < 50% | – | < 50% | – | O=C(/C=C/C=C/c1ccc(O)c(O)c1)NCCc1ccccc1 | > 22 | > 85% | – | Toxic | Active | – | 3.3 | – | Non-Toxic | –
– | – | 129 mV | < 50% | < 50% | < 50% | < 50% | < 50% | O=C(O)/C=C/C=C/c1ccc(O)c(O)c1 [DEMETHYLENATED PIPERIC ACID] | – | – | Non-Toxic | – | inactive | – | 5.5 | Non-Toxic | Non-Toxic | –
